Source: patent publication US12692247B2, “Phenyl- and pyridopyrazole derivatives as inhibitors of DDR1” (Redx Pharma Limited, priority 2021, dated 2026)

What was measured:
Recombinant human DDR1 = target: T1, Recombinant human DDR1 (Homo sapiens, UniProt Q08345); assay: LanthaScreen Eu Kinase Binding Assay, DDR1; details: recombinant human DDR1 (2.5 nM; aa440-876, GST tag), Kinase Tracer 178 5 nM, time-resolved fluorescence, at least two independent replicates; read-out: DDR1 pIC50 (converted)
T1 construct: Recombinant human DDR1 (2.5 nM; aa440-876 containing a GST tag)
T1 sequence (Q08345 440-876 isoform Q08345-2): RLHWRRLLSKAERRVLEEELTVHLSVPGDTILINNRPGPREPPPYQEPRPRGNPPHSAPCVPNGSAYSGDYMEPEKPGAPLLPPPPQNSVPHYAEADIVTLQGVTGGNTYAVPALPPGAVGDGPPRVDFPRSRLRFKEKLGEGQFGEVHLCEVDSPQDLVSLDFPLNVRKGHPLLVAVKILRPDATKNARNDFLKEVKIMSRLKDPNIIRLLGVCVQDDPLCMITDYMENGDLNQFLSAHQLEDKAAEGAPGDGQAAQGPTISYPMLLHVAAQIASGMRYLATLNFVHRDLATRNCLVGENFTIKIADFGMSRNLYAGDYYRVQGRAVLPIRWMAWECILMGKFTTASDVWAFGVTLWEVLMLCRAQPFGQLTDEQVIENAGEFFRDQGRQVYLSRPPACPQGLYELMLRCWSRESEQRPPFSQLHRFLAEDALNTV
Description: (§1) DDR1 and DDR2 Biochemical Assay Method
(§2) The capacity of compounds to bind to DDR1 and DDR2 was quantified using a LanthaScreen Eu Kinase Binding Assay. Recombinant human DDR1 (2.5 nM; aa440-876 containing a GST tag) and DDR2 (1.75 nM; aa427-855 containing a GST tag) were diluted in assay buffer (50 mM HEPES pH7.3, 10 mM MgCl2, 1 mM EGTA and 0.01% Tween) with various concentrations of compound in a 384-well plate and a volume of 5 uL. After a 30-minute incubation at room temperature, 2.5 uL of Eu-anti GST antibody (diluted to 1 nM in assay buffer) plus Kinase Tracer 178 (diluted in assay buffer to 5 nM for DDR1 and 10 nM for DDR2) were added to the plate. Following 60-minute incubation at room temperature, time-resolved fluorescence was measured on a BMG Labtech PHERAstar plate reader. DMSO (1%) and reference compound (1 μM) were used to generate the Max and Min assay signals, respectively. Data was analysed using a four-parameter logistic model to calculate IC50 values, with at least two independent replicates were performed for each compound.

Recombinant human DDR2 = target: T2, Recombinant human DDR2 (Homo sapiens, UniProt Q16832); assay: LanthaScreen Eu Kinase Binding Assay, DDR2; details: recombinant human DDR2 (1.75 nM; aa427-855, GST tag), Kinase Tracer 178 10 nM, time-resolved fluorescence, at least two independent replicates; read-out: DDR2 pIC50 (converted)
T2 construct: DDR2 (1.75 nM; aa427-855 containing a GST tag)
T2 sequence (Q16832 427-855): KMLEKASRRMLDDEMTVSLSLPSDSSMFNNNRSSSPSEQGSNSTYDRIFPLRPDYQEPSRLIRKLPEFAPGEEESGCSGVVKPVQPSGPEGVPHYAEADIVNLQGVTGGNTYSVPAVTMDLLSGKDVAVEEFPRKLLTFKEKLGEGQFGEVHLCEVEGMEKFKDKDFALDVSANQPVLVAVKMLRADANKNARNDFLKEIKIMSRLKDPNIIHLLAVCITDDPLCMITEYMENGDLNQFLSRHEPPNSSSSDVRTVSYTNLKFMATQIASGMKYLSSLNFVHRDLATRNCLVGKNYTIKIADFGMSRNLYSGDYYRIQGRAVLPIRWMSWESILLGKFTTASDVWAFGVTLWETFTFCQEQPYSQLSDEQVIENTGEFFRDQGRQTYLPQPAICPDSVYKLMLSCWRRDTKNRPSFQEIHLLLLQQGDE
Description: as §1, §2

IC50 (Recombinant human DDR1)	IC50 (Recombinant human DDR2)	SMILES
100 to 1000 nM	≥ 1000 nM	Cn1ncc2cc(Nc3cccc4ccn(CC(=O)NCC(F)(F)F)c(=O)c34)cc(C(N)=O)c21 [Example 125, 1-Methyl-5-[[1-oxo-2-[2-oxo-2-(2,2,2-trifluoroethylamino)ethyl]-8-isoquinolyl]amino]indazole-7-carboxamide]
10 to 100 nM	100 to 1000 nM	Cn1ncc2cc(Nc3cccc4ccn(CC(=O)Nc5ccc(C(F)(F)F)nc5)c(=O)c34)ccc21 [Example 59, 2-[8-[(1-methylindazol-5-yl)amino]-1-oxo-2-isoquinolyl]-N-[6-(trifluoromethyl)-3-pyridyl]acetamide]
10 to 100 nM	≥ 1000 nM	O=C(Cn1ccc2cccc(Nc3ccc4[nH]ncc4c3)c2c1=O)NCC(F)(F)F [Example 1, 2-[8-(1H-indazol-5-ylamino)-1-oxo-2-isoquinolyl]-N-(2,2,2-trifluoroethyl)acetamide]
≥ 1000 nM	≥ 1000 nM	Cn1ncc2cc(Nc3cccc4ccn(CC(=O)Nc5ccncc5)c(=O)c34)ccc21 [Example 26, 2-[8-[(1-methylindazol-5-yl)amino]-1-oxo-2-isoquinolyl]-N-(4-pyridyl)acetamide]
10 to 100 nM	100 to 1000 nM	Cc1n[nH]c2cc(Nc3cccc4ccn(CC(=O)Nc5cccc(C(F)(F)F)c5)c(=O)c34)ccc12 [Example 159, 2-[8-[(3-methyl-1H-indazol-6-yl)amino]-1-oxo-2-isoquinolyl]-N-[3-(trifluoromethyl)phenyl]acetamide]
10 to 100 nM	≥ 1000 nM	Cn1ncc2cc(Nc3cccc4ccn(CC(=O)Nc5ccccc5)c(=O)c34)ccc21 [Example 39, 2-[8-[(1-methylindazol-5-yl)amino]-1-oxo-2-isoquinolyl]-N-phenyl-acetamide]
100 to 1000 nM	≥ 1000 nM	Cn1ncc2cc(Nc3cccc4ccn(CC(=O)NC5CC5)c(=O)c34)ccc21 [Example 17, N-cyclopropyl-2-[8-[(1-methylindazol-5-yl)amino]-1-oxo-2-isoquinolyl]acetamide]
< 10 nM	10 to 100 nM	O=C(Cn1ccc2cccc(Nc3cc(Cl)c4[nH]ncc4c3)c2c1=O)NCC(F)(F)F [Example 52, 2-[8-[(7-chloro-1H-indazol-5-yl)amino]-1-oxo-2-isoquinolyl]-N-(2,2,2-trifluoroethyl) acetamide]
10 to 100 nM	≥ 1000 nM	COc1ccc(NC(=O)Cn2ccc3cccc(Nc4ccc5c(cnn5C)c4)c3c2=O)cc1 [Example 55, N-(4-methoxyphenyl)-2-[8-[(1-methylindazol-5-yl)amino]-1-oxo-2-isoquinolyl]acetamide]
< 10 nM	10 to 100 nM	Cn1ncc2cc(Nc3cccc4ccn(CC(=O)N5CCC[C@H]5CF)c(=O)c34)ccc21 [Example 136, 2-[2-[(2S)-2-(fluoromethyl)pyrrolidin-1-yl]-2-oxo-ethyl]-8-[(1-methylindazol-5-yl)amino]isoquinolin-1-one]
10 to 100 nM	100 to 1000 nM	CN(c1ccc2c(cnn2C)c1)c1cccc2ccn(CC(=O)Nc3cccc(C(F)(F)F)c3)c(=O)c12 [Example 144, 2-[8-[methyl-(1-methylindazol-5-yl)amino]-1-oxo-2-isoquinolyl]-N-[3-(trifluoromethyl)phenyl]acetamide]
10 to 100 nM	100 to 1000 nM	Cn1ncc2cc(Nc3cccc4ccn(CC(=O)N5CCC[C@H]5C(F)(F)F)c(=O)c34)cnc21 [Example 78, 8-[(1-methylpyrazolo[3,4-b]pyridin-5-yl)amino]-2-[2-oxo-2-[(2S)-2-(trifluoromethyl)pyrrolidin-1-yl]ethyl]isoquinolin-1-one]
100 to 1000 nM	≥ 1000 nM	Cn1ncc2cc(Nc3cccc4ccn(CC(=O)N5CCC[C@H]5C(C)(C)O)c(=O)c34)ccc21 [Example 60, 2-[2-[(2S)-2-(1-hydroxy-1-methyl-ethyl)pyrrolidin-1-yl]-2-oxo-ethyl]-8-[(1-methylindazol-5-yl)amino]isoquinolin-1-one]
< 10 nM	10 to 100 nM	Cn1ncc2cc(Nc3cccc4ccn(CC(=O)Nc5cccc(C(C)(C)O)c5)c(=O)c34)ccc21 [Example 38, N-[3-(1-hydroxy-1-methyl-ethyl)phenyl]-2-[8-[(1-methylindazol-5-yl)amino]-1-oxo-2-isoquinolyl]acetamide]
≥ 1000 nM	≥ 1000 nM	CN1CCN(C(=O)Cn2ccc3cccc(Nc4ccc5c(cnn5C)c4)c3c2=O)CC1 [Example 13, 8-[(1-methylindazol-5-yl)amino]-2-[2-(4-methylpiperazin-1-yl)-2-oxo-ethyl]isoquinolin-1-one]
< 10 nM	10 to 100 nM	Cn1ncc2cc(Nc3cccc4ccn(CC(=O)N5CCCC[C@H]5C(F)(F)F)c(=O)c34)ccc21 [Example 61, 8-[(1-methylindazol-5-yl)amino]-2-[2-oxo-2-[(2S)-2-(trifluoromethyl)-1-piperidyl]ethyl]isoquinolin-1-one]
10 to 100 nM	10 to 100 nM	Cc1cc(C)n(C(=O)Cn2ccc3cccc(Nc4ccc5c(cnn5C)c4)c3c2=O)n1 [Example 98, 2-[2-(3,5-dimethyl-1H-pyrazol-1-yl)-2-oxoethyl]-8-[(1-methyl-1H-indazol-5-yl)amino]-1,2-dihydroisoquinolin-1-one]
< 10 nM	10 to 100 nM	Cn1ncc2cc(Nc3cccc4ccn(CC(=O)N5CCC[C@H]5C(F)(F)F)c(=O)c34)ccc21 [Example 49]
< 10 nM	10 to 100 nM	CC(=O)c1cccc(NC(=O)Cn2ccc3cccc(Nc4ccc5c(cnn5C)c4)c3c2=O)c1 [Example 32, N-(3-acetylphenyl)-2-[8-[(1-methylindazol-5-yl)amino]-1-oxo-2-isoquinolyl]acetamide]
10 to 100 nM	100 to 1000 nM	Cc1cn(-c2cc(NC(=O)Cn3ccc4cccc(Nc5ccc6c(cnn6C)c5)c4c3=O)cc(C(F)(F)F)c2)cn1 [Example 79, N-[3-(4-methylimidazol-1-yl)-5-(trifluoromethyl)phenyl]-2-[8-[(1-methylindazol-5-yl)amino]-1-oxo-2-isoquinolyl]acetamide]
10 to 100 nM	100 to 1000 nM	Cn1ncc2cc(Nc3cccc4ccn(CC(=O)N5CCOCC5C(F)(F)F)c(=O)c34)ccc21 (centres unmarked) [Example 87, 8-[(1-methylindazol-5-yl)amino]-2-[2-oxo-2-[3-(trifluoromethyl)morpholin-4-yl]ethyl]isoquinolin-1-one]
10 to 100 nM	100 to 1000 nM	Cn1ncc2cc(Nc3cccc4ccn(CC(=O)NC5(C(F)(F)F)CC5)c(=O)c34)ccc21 [Example 21, 2-[8-[(1-methylindazol-5-yl)amino]-1-oxo-2-isoquinolyl]-N-[1-(trifluoromethyl)cyclopropyl]acetamide]
≥ 1000 nM	≥ 1000 nM	Cn1ncc2cc(Nc3cccc4ccn(CC(=O)NC(CO)C(F)(F)F)c(=O)c34)ccc21 (centres unmarked) [Example 50, 2-[8-[(1-methylindazol-5-yl)amino]-1-oxo-2-isoquinolyl]-N-[2,2,2-trifluoro-1-(hydroxymethyl)ethyl)acetamide]
100 to 1000 nM	≥ 1000 nM	COC(=O)C1CCN(C(=O)Cn2ccc3cccc(Nc4ccc5c(cnn5C)c4)c3c2=O)C1 (centres unmarked) [Example 73, methyl 1-[2-[8-[(1-methylindazol-5-yl)amino]-1-oxo2-isoquinolyl]acetyl]pyrrolidine-3-carboxylate]
10 to 100 nM	100 to 1000 nM	Cn1ncc2cc(Nc3cccc4ccn(CC(=O)N5CCCC(C(F)(F)F)C5)c(=O)c34)ccc21 (centres unmarked) [Example 121]
